The test system of assay [1] is spindle assembly checkpoint. The assay can be described thus: SAC-Formation - Nocodazole-Induced Assay. The class given is cell-based. Conditions: Homo sapiens; HeLa cells, nocodazole 0.1 μg/ml, 24 h, phosphorylated histone H3 on serine 10. In short, it runs like this: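 HeLa cells were given nocodazole at 0.1 μg/ml final together with compounds (0.005–20 μM, 0.5% DMSO) for 24 h at 37° C. Mitotic cells were counted by phospho-histone H3 Ser10 immunostaining, with cell number from HOECHST 33342, by high-content imaging. The loss of mitotic cells was fitted with a four-parameter Hill equation.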

The target of assay [2] is CDK2/CycE (Homo sapiens (Human), UniProt P24941). The assay can be described thus: CDK2/CycE kinase assay (TR-FRET). The class given is biochemical. Conditions: 10 μM ATP; read-out: CDK2 avg (IC50 [mol/l]). In a few lines: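 GST-tagged human CDK2 and GST-CycE from Sf9 cells (~130 ng/ml) were preincubated with compound for 15 min at 22 °C. Reaction with 10 μM ATP and 0.75 μM biotinylated peptide (final) ran 25 min at 22 °C, pH 8.0. Phospho-peptide was read by TR-FRET (665/620 nm ratio, anti-pRB antibody, Eu donor) and normalised to no-enzyme and no-inhibitor controls.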
In general terms: TR-FRET usually uses a lanthanide donor and a delayed reading to cut background.

Twelve molecules from patent US9682995B2, “Amino-substituted isothiazoles” (BAYER PHARMA AKTIENGESELLSCHAFT, priority 2013, dated 2017) can be followed below.

Molecules are shown by their SMILES.

Take `COc1ccc(NC(=O)c2c(C)nsc2Nc2nc3ccc(C)cc3s2)cn1` [Example 90, N-(6-Methoxypyridin-3-yl)-3-methyl-5-[(6-methyl-1,3-benzothiazol-2-yl)amino]-1,2-thiazole-4-carboxamide]: the IC50 in assay [1] is 4.2 µM; in assay [2], more than 20 µM.

For the molecule `CCc1ccccc1NC(=O)c1c(C)nsc1Nc1nccc(-c2ccccc2)n1` [Example 5, N-(2-Ethylphenyl)-3-methyl-5-[(4-phenylpyrimidin-2-yl)amino]-1,2-thiazole-4-carboxamide], the IC50 in assay [1] was 1.2 µM; in assay [2], more than 20 µM.

In the case of `COc1ccc(NC(=O)c2c(C)nsc2Nc2cncc(C(F)(F)F)n2)cn1` [Example 84, N-(6-methoxypyridin-3-yl)-3-methyl-5-{[6-(trifluoromethyl)pyrazin-2-yl]amino}-1,2-thiazole-4-carboxamide], the IC50 in assay [1] was 0.058 µM; in assay [2], more than 20 µM.

Turning to `CCc1ccccc1NC(=O)c1c(C)nsc1Nc1nc(C(=O)OC)co1` [Example 91, Methyl 2-({4-[(2-ethylphenyl)carbamoyl]-3-methyl-1,2-thiazol-5-yl}amino)-1,3-oxazole-4-carboxylate], the IC50 was 4.2 µM in assay [1] and more than 20 µM in assay [2].

Consider `CCNC(=O)c1cncc(Nc2snc(C)c2C(=O)Nc2ccc(F)c(F)c2)n1` [Example 73, 6-({4-[(3,4-Difluorophenyl)carbamoyl]-3-methyl-1,2-thiazol-5-yl}amino)-N-ethylpyrazine-2-carboxamide], for which the results for the IC50 in assay [1] and in assay [2] were 0.23 µM and more than 20 µM, respectively.

As for `Cc1nsc(Nc2cnc3cc(C(F)(F)F)ccc3n2)c1C(=O)Nc1ccc(Cl)c(F)c1` [Example 68, N-(4-Chloro-3-fluorophenyl)-3-methyl-5-{[6-(trifluoromethyl)quinoxalin-2-yl]amino}-1,2-thiazole-4-carboxamide], the IC50 in assay [1] is 0.049 µM; in assay [2] it was more than 20 µM.

With `Cc1nsc(Nc2ccc(C#N)cn2)c1C(=O)Nc1ccc(Cl)c(Cl)c1` [Example 62, 5-[(5-Cyanopyridin-2-yl)amino]-N-(3,4-dichlorophenyl)-3-methyl-1,2-thiazole-4-carboxamide], the IC50 is 0.0082 µM in assay [1] and 6.5 µM in assay [2].

As to `CCNc1cncc(Nc2snc(C)c2C(=O)Nc2ccc(F)c(F)c2)n1` [Example 78, N-(3,4-Difluorophenyl)-5-{[6-(ethylamino)pyrazin-2-yl]amino}-3-methyl-1,2-thiazole-4-carboxamide], the IC50 was 0.39 µM in assay [1] and more than 20 µM in assay [2].

`Cc1cncc(Nc2snc(C)c2C(=O)Nc2ccc(F)c(F)c2)n1` [Example 69]: the results for the IC50 in assay [1] and in assay [2] were 0.048 µM and more than 20 µM, respectively.

Take `Cc1nsc(Nc2cnc(Cl)cn2)c1C(=O)Nc1ccc(F)c(F)c1` [Example 74, 5-[(5-Chloropyrazin-2-yl)amino]-N-(3,4-difluorophenyl)-3-methyl-1,2-thiazole-4-carboxamide]: the values for the IC50 in assay [1] and in assay [2] were 0.029 µM and more than 20 µM, respectively.

As for `COc1ccc(NC(=O)c2c(C)nsc2Nc2nc3cccnc3s2)cn1` [Example 89, N-(6-Methoxypyridin-3-yl)-3-methyl-5-([1,3]thiazolo[5,4-b]pyridin-2-ylamino)-1,2-thiazole-4-carboxamide], the IC50 is 1.4 µM in assay [1] and more than 20 µM in assay [2].

As to `COc1ccc2nc(Nc3snc(C)c3C(=O)Nc3ccc(OC)nc3)sc2c1` [Example 87, 5-[(6-Methoxy-1,3-benzothiazol-2-yl)amino]-N-(6-methoxypyridin-3-yl)-3-methyl-1,2-thiazole-4-carboxamide], the IC50 in assay [1] was 0.59 µM; in assay [2], more than 20 µM.
